From patent US10487053B2, “Acid addition salt of 1-(5-(2,4-difluorophenyl)-1-((3-fluorophenyl)sulfonyl)-4-methoxy-1H-pyrrol-3-yl)-N-methylmethanamine” (Daewoong Pharmaceutical Co., Ltd., priority 2016, dated 2019)

Assays:
Solubility test in water = format: physicochemical; conditions: deionized water, thermodynamic from solid
Method: For the solubility test in water, a sample of less than 10 mg was first precisely weighed and taken, and placed into a vial, to which 50 μl of deionized water was added, shaking for 30 seconds and ultrasonic shaking for 1 minute were carried out, and these processes were repeated several times. The water solubility was calculated by measuring the amount of water used to dissolve all the samples.

[1] = Stability confirmation test (impurity formation during storage under severe conditions, liquid chromatography); format: physicochemical
Method: The stability test was carried out for the acid addition salts prepared in the Examples to evaluate the degree to which impurities were formed during storage under severe conditions (moisture-proof condition and high-humidity exposure condition). The results of the stability test under the moisture-proof condition were shown in Table 2 below, and the results of the stability test under the high-humidity exposure condition were shown in Table 3 below. For the stability test, vials containing 10 mg of each sample which was precisely weighed and taken were prepared in the planned quantity, and they were stored by dividing into the moisture-proof condition (60° C. and less than 10% relative humidity) and under the high-humidity exposure condition (60° C. and 95% relative humidity). However, under the high-humidity exposure condition, a stopper of the vial was not used to keep so that the sample is in sufficient contact with a moisture in the air. At a fixed point of time after the initiation of the test, two vials per point of time were taken (number of samples per test n=2). 10 ml of methanol was added to each vial to dissolve the sample, which was then centrifuged. The resulting supernatant was analyzed using a liquid chromatography. The peak area was determined by integration for all detected peaks, and the relative peak area for the main component and the total impurity was calculated and expressed as an average value.

[2] = high-humidity exposure condition (60° C. and 95% relative humidity), After 1 week
[3] = high-humidity exposure condition (60° C. and 95% relative humidity), After 2 weeks
[4] = high-humidity exposure condition (60° C. and 95% relative humidity), After 4 weeks
[5] = high-humidity exposure condition (60° C. and 95% relative humidity), Initial
[6] = moisture-proof condition (60° C. and less than 10% relative humidity), After 2 weeks
[7] = moisture-proof condition (60° C. and less than 10% relative humidity), After 4 weeks
[8] = moisture-proof condition (60° C. and less than 10% relative humidity), Initial

| Structure (SMILES) | solubility (Solubility test in water) | Peak area of main component (%) [1, 2] | Peak area of total impurities (%) [1, 2] | Peak area of main component (%) [1, 3] | Peak area of total impurities (%) [1, 3] | Peak area of main component (%) [1, 4] | Peak area of total impurities (%) [1, 4] | Peak area of main component (%) [1, 5] | Peak area of total impurities (%) [1, 5] | Peak area of main component (%) [1, 6] | Peak area of total impurities (%) [1, 6] | Peak area of main component (%) [1, 7] | Peak area of total impurities (%) [1, 7] | Peak area of main component (%) [1, 8] | Peak area of total impurities (%) [1, 8] |
| --- | --- | --- | --- | --- | --- | --- | --- | --- | --- | --- | --- | --- | --- | --- | --- |
| CNCc1cn(S(=O)(=O)c2cccc(F)c2)c(-c2ccc(F)cc2F)c1OC.Cl [Example 1, 1-(5-(2,4-difluorophenyl)-1-((3-fluorophenyl)sulfonyl)-4-methoxy-1H-pyrrol-3-yl)-N-methylmethanamine hydrochloride] | 11100 µg/mL | 99.81% | 0.19% | 99.80% | 0.20% | 99.80% | 0.20% | 99.82% | 0.18% | 99.80% | 0.19% | 99.80% | 0.20% | 99.82% | 0.18% |
| CNCc1cn(S(=O)(=O)c2cccc(F)c2)c(-c2ccc(F)cc2F)c1OC.O=C(O)CCC(=O)O [Example 2, 1-(5-(2,4-difluorophenyl)-1-((3-fluorophenyl)sulfonyl)-4-methoxy-1H-pyrrol-3-yl)-N-methylmethanamine succinate] | 7200 µg/mL | 99.56% | 0.44% | 99.53% | 0.47% | 99.47% | 0.54% | 99.55% | 0.45% | 99.61% | 0.39% | 99.55% | 0.45% | 99.55% | 0.45% |

The next lines start with the values.

| solubility (Solubility test in water) | Peak area of main component (%) [1, 2] | Peak area of total impurities (%) [1, 2] | Peak area of main component (%) [1, 3] | Peak area of total impurities (%) [1, 3] | Peak area of main component (%) [1, 4] | Peak area of total impurities (%) [1, 4] | Peak area of main component (%) [1, 5] | Peak area of total impurities (%) [1, 5] | Peak area of main component (%) [1, 6] | Peak area of total impurities (%) [1, 6] | Peak area of main component (%) [1, 7] | Peak area of total impurities (%) [1, 7] | Peak area of main component (%) [1, 8] | Peak area of total impurities (%) [1, 8] | Structure (SMILES) |
| --- | --- | --- | --- | --- | --- | --- | --- | --- | --- | --- | --- | --- | --- | --- | --- |
| 6900 µg/mL | 99.48% | 0.52% | 99.43% | 0.57% | 99.23% | 0.77% | 99.52% | 0.48% | 99.54% | 0.46% | 99.48% | 0.52% | 99.52% | 0.48% | CNCc1cn(S(=O)(=O)c2cccc(F)c2)c(-c2ccc(F)cc2F)c1OC.O=C(O)C(O)C(O)C(=O)O [Example 3, 1-(5-(2,4-difluorophenyl)-1-((3-fluorophenyl)sulfonyl)-4-methoxy-1H-pyrrol-3-yl)-N-methylmethanamine tartrate] |
| 1730 to 2600 µg/mL | 99.40% | 0.60% | 99.32% | 0.68% | 99.30% | 0.70% | 99.38% | 0.62% | 99.36% | 0.64% | 99.37% | 0.63% | 99.38% | 0.62% | CNCc1cn(S(=O)(=O)c2cccc(F)c2)c(-c2ccc(F)cc2F)c1OC.O=C(O)/C=C/C(=O)O [Example 4, 1-(5-(2,4-difluorophenyl)-1-((3-fluorophenyl)sulfonyl)-4-methoxy-1H-pyrrol-3-yl)-N-methylmethanamine fumarate] |
| < 160 µg/mL |  |  |  |  |  |  |  |  |  |  |  |  |  |  | CNCc1cn(S(=O)(=O)c2cccc(F)c2)c(-c2ccc(F)cc2F)c1OC [Preparation Example, 1-(5-(2,4-difluorophenyl)-1-((3-fluorophenyl)sulfonyl)-4-methoxy-1H-pyrrol-3-yl)-N-methylmethanamine] |
